Measured values taken from patent publication US10550115B2, “1, 4, 8-triazaphenanthrene derivatives for the treatment of neurodegenerative disorders” (Institut Du Cerveau et de la Moëlle Epiniere, priority 2015, dated 2020).

Assays:
[1] = system: dopaminergic (TH+) neurons derived from primary cultures of embryonic ventral mesencephalon; test: Spontaneous degeneration of dopaminergic neurons in primary cultures of embryonic ventral mesencephalon, TH+ neuron count at DIV 10; format: cell-based; details: for viability at 0.1 µM / viability at 1 µM / viability at 10 µM: Neuron, 240 h, read-out: TH+ neurons, % relative to the control ± standard error; for Neuroprotective activity, in words: survival percentage at 10 μM almost equal to that induced by db-cAMP at 1 mM
Protocol: The compounds of the invention were tested in a model of spontaneous degeneration of dopaminergic neurons derived from primary cultures of embryonic ventral mesencephalon according to the protocol described in the article by S. Guerreiro et a1. (2008). The primary cultures of embryonic ventral mesencephalon thus obtained are mixed cultures containing about 50% neuronal cells and 50% glial cells. Among the neuronal cells, dopaminergic neurons make up 3% of the total neurons, most of the neurons derived from these cultures being GABAergic. Concerning the glial cells, they mainly consist of astrocytes (>95% of the glial cells). These cultures are characterized by spontaneous, progressive and selective death of dopaminergic neurons as a result of a mechanism involving immature astrocytes and calcium dyshomeostasis (E. Rousseau et a1. (2013), D. Toulorge et a1. (2011)). The neuroprotective effect of the compounds of the invention was evaluated by counting dopaminergic (TH^+) neurons stained by tyrosine hydroxylase (TH) immunohistochemistry after 10 days of culture (DIV 10).

[2] = system: dopaminergic neurons of the substantia nigra; test: MPTP mouse model of Parkinson's disease: survival of TH+ dopaminergic neurons in the substantia nigra; format: in vivo; details: MPTP/Iac mice
Protocol: (§1) The potential neuroprotective effects of Iac were evaluated by measuring striatum dopamine levels and dopamine turnover in the mouse model of Parkinson's disease treated with MPTP (1-methyl-4-phenyl-1,2,3,6-tetrahydropyridine), and by evaluating the number of dopaminergic neurons saved in the substantia nigra. Mice were treated with Iac (50 and 100 mg/kg, p.o., in 1% carboxymethyl cellulose and 0.5% Tween 80) for 11 consecutive days. MPTP (20 mg/kg; intraperitoneal route), or saline solution for the controls, was administered on treatment days 4 to 8. All mice were killed on day 12 following final administration of the treatment, then the striatal tissue was dissected for analysis. The effect of MPTP treatment on striatum dopamine depletion was analysed by high-pressure liquid chromatography (HPLC) in combination with electrochemical detection for measurement of levels of dopamine monoamine (DA), 3,4-dihydroxyphenylacetic acid (DOPAC), and homovanillic acid (HVA).
At the dose of 2×25 mg/kg/d (par os), the near-total survival of TH^+ neurons was observed. Indeed, in the group of mice treated with MPTP/Iac, survival was measured at 93±4% relative to the controls.

[3] = Aqueous solubility; format: physicochemical; details: aqueous medium (not further specified)
[4] = system: mouse model of Parkinson's disease treated with MPTP; test: MPTP mouse model of Parkinson's disease: striatum dopamine levels and dopamine turnover (HPLC, electrochemical detection); format: in vivo; details: MPTP mice
Protocol: as §1

[5] = In vivo study of BBB crossing, HPLC-MS/MS of plasma and brain after IV injection; set-up: species or system CD-1 mice
Protocol: The goal of this study is to confirm, by HPLC coupled to mass spectrometry, the presence of compound Iac in the brain parenchyma after sub-chronic intravenous treatment in mice.
The study is performed with CD-1 mice.
A 0.5 mg/mL solution of compound Iac is prepared in physiological saline containing 10% Cremophor EL®. The same dose of this solution is administered intravenously to 6 mice (2 μL/g).
After 5 min, 3 mice are sacrificed. After 30 min, the other 3 mice are sacrificed.
Blood is drawn, and the plasma is separated by centrifugation. The brain is harvested after intracardiac perfusion. The samples are frozen and stored at −80° C. before treatment.
Plasma: 400 μL of each plasma sample is mixed with 1 mL of acetonitrile to precipitate proteins and extract compound Iac.
Brain: Each brain is ground in 400 μL of physiological saline. 800 μL of acetonitrile is added in order to extract compound Iac.
The treated samples are vortexed for 3 minutes and then placed in a sonicator again for 3 minutes. The precipitated proteins and the solid residues are sedimented by centrifugation (15,000 g, 5 minutes at 4° C.). The supernatants are transferred to a microplate to be analysed by HPLC-MS/MS.
Samples are analysed with the method described below, with detection and quantification, based on peak area, being performed by HPLC-MS/MS in MRM mode.
For the calculation of log [brain]/[plasma] to determine blood-brain barrier crossing, the mean plasma volume of a mouse is evaluated at 1.5 mL.

[6] = 50 mg/kg p.o., 11 consecutive days
[7] = 100 mg/kg p.o., 11 consecutive days

Compound | viability at 0.1 µM [1] | viability at 1 µM [1] | viability at 10 µM [1] | Neuroprotective activity, in words [1] | further results
Cc1nc2ccc3ncccc3c2nc1-c1ccc2ccccc2c1 [Ibj] | 58.1 ± 2.8% | 59.2 ± 2.2% | 67.3 ± 2.5% | – | –
Clc1cnc2ccc3ncccc3c2n1 [Iad] | 27.4 ± 1.6% | 26.5 ± 1.6% | 33.8 ± 1.8% | – | –
Fc1ccc(-c2cnc3ccc4ncccc4c3n2)cc1 [Iah] | 24.4 ± 1.4% | 32.8 ± 1.8% | 42.8 ± 2.2% | – | –
c1ccc2cc(-c3cnc4ccc5ncccc5c4n3)ccc2c1 [Iaj] | 28.9 ± 1.8% | 42.8 ± 2.1% | 94.9 ± 3.5% | particularly high activity | –
Oc1cccc(-c2cnc3ccc4ncccc4c3n2)c1 [Iae] | 24.7 ± 1.6% | 47.7 ± 2.6% | 99.3 ± 4.4% | particularly high activity | –
c1cnc2ccc3nccnc3c2c1 [Iaa] | 25.7 ± 1.6% | 26.2 ± 1.7% | 30.6 ± 2.3% | – | –
C#Cc1cnc2ccc3ncccc3c2n1 [Iak] | 38.2 ± 2.1% | 40.7 ± 2.6% | 7 ± 1.3% | – | –
c1cncc(-c2cnc3ccc4ncccc4c3n2)c1 [Iag] | 31.4 ± 1.7% | 48.3 ± 2.4% | 96.6 ± 4.5% | particularly high activity | –
c1ccc2ncc(-c3cnc4ccc5ncccc5c4n3)cc2c1 [Iam] | 27.6 ± 2% | 46.7 ± 2.7% | 97.3 ± 3.6% | particularly high activity | –
c1ccc(-c2cnc3ccc4ncccc4c3n2)cc1 [Iac, 3-phenyl-1,4,8-triazaphenanthrene] | 46.6 ± 2.8% | 64.7 ± 2.9% | 91 ± 3.7% | particularly high activity | Survival of TH+ neurons relative to the controls ([2]; 2×25 mg/kg/d per os): 93±4%; Dopaminergic neuron survival relative to the controls ([2]; 2×50 mg/kg/d per os): 81±4%; Activity (concentration showing neuroprotective activity in vitro) ([1]; in vitro): 1 µM; Concentration for optimal neuroprotective activity ([1]; in vitro): 10 µM; solubility [3]: < 10 µg/mL; Decrease in the (DOPAC+HVA)/DA ratio [4, 6]: 30%; Increase of striatum DA levels [4, 6]: 64%; Decrease in the (DOPAC+HVA)/DA ratio [4, 7]: 28%; Increase of striatum DA levels [4, 7]: 78%; Increase of striatum HVA levels [4, 7]: 25%; Effect on DOPAC levels ([4]; 50 and 100 mg/kg p.o.): no significant effect; Amount (nmol/brain) ([5]; 5 min after IV injection of 1 mg/kg, mice): 5.19 ± 0.25 nmol/brain; Amount (nmol/brain) ([5]; 30 min after IV injection of 1 mg/kg, mice): 0.50 ± 0.07 nmol/brain; Kp at 5 min ([5]; CD-1, brain and plasma, 5 min after IV injection of 1 mg/kg, mean plasma volume of a mouse evaluated at 1.5 mL, read-out: Log [brain]/[plasma]): 0.15 ± 0.05; Kp at 30 min ([5]; CD-1, brain and plasma, 30 min after IV injection of 1 mg/kg, mean plasma volume of a mouse evaluated at 1.5 mL, read-out: Log [brain]/[plasma]): 0.02 ± 0.1; concentration at 5 min ([5]; CD-1, mouse, plasma, 5 min after IV injection of 1 mg/kg, mice): 2470 ± 240 nM; concentration at 30 min ([5]; CD-1, mouse, plasma, 30 min after IV injection of 1 mg/kg, mice): 320 ± 50 nM; Blood-brain barrier crossing in vivo, in words ([5]; after intravenous administration): able to cross the BBB
COc1cc(-c2cnc3ccc4ncccc4c3n2)cc(OC)c1OC [Iaf] | 27.7 ± 1.6% | 46.8 ± 2.3% | 70.8 ± 3.5% | – | –
